The target of assay [1] is apolipoprotein(a), [apo(a)], apolipoproteinB-100, [apoB-100], coupling reaction that generates Lp(a) (Homo sapiens, UniProt P04114+P08519). The assay is described as follows: LPABC screen: lipoprotein(a) biochemical coupling assay, Lp(a) content by ELISA. The conditions noted are these: recombinant apo(a) 17-kringle (293 cell media) + HepG2 conditioned media, 67 minutes, 37° C., 0.3 to 50 μM compound; read-out: Lp ABC IC50. The procedure: LPABC Screen The lipoprotein(a), [Lp(a)], biochemical coupling assay (LPABC) is used to characterize inhibitors of the apolipoprotein(a), [apo(a)], apolipoproteinB-100, [apoB-100], coupling reaction that generates Lp(a). Conditioned media from 293 cells (ATCC CRL-1573), permanently transfected with an apo(a) 17-kringle cDNA expression construct (pcDNA-AMP, In Vitrogen, Carlsbad, Calif.) using standard molecular biology techniques, was used as a source of recombinant apo(a) is diluted 1:3 with phosphate buffered saline (PBS) and 90 μL is pipetted into each well of a 96-well plate and placed into a 37° C. incubator for 10 minutes. Twenty microliters of a 0.3 to 50 μM solution of a compound of the present invention in PBS is added to the warmed plate. Ninety microliters of HepG2 (ATCC HB-8065) cell conditioned media diluted 1:3 with PBS is added to the apo(a)/compound mixture and mixed by pipetting up and down 5 times. The reaction is incubated for 67 minutes in a 37° C. incubator. A 100 μL aliquot of the reaction is removed and assayed for its Lp(a) content by an enzyme linked immunosorbent assay (ELISA).
For orientation: ELISA stands for enzyme-linked immunosorbent assay.

In assay [2] the test system is Lp(a) production in HepG2^K17 cells. The assay is described as follows: LPA3 screen: inhibition of Lp(a) production in transfected HepG2 cells, Lp(a) in media by ELISA. The assay is classed as cell-based. To be noted: Homo sapiens, 8 hours, 0.3 to 50 μM compound, Lp(a) normalized for total protein, read-out: Lp A3 IC50. The procedure:
The LPA3 screen is used to identify compounds that inhibit Lp(a) production. This screen employs permanently transfected HepG2 cells (HepG2^K17) that are generated using an apo(a) 17-kringle cDNA expression construct (pcDNA-AMP, In Vitrogen, Carlsbad, Calif.) in accordance with methods that are well-known in molecular biology.
HepG2^K17 cells are seeded in 96-well plates at a density of 75,000 cells per well in 0.25 mL of Dulbecco's Modified Eagle Media (DMEM) containing 10% fetal bovine serum (FBS). Seeded plates are incubated overnight in a 37° C., 5% CO2/95% 02 incubator. The media is removed, replaced with (1) fresh media, or (2) fresh media plus 0.3 to 50 μM of a compound of the present invention in 20 μL of PBS, and the plates returned to the incubator for 8 hours. After the additional 8 hours of incubation, Lp(a) is assayed in the media by ELISA. Cells are digested with 0.5N NaOH overnight and assayed for total protein. Lp(a) values are normalized for total protein content.

By IC50 is commonly meant the midpoint of a concentration-inhibition curve. In the case of `O=C(c1ccccc1[N+](=O)[O-])N(Cc1cccnc1)Cc1ccccc1-c1ccccc1` [Example 100, N-Biphenyl-2-ylmethyl-2-nitro-N-pyridin-3-ylmethyl-benzamide], the IC50 in assay [1] is greater than 50 µM; in assay [2], 45.8 µM.

In the case of `O=C(c1ccccc1OCc1ccccc1)N(Cc1cccnc1)Cc1ccccc1-c1ccccc1` [Example 101, 2-Benzyloxy-N-biphenyl-2-ylmethyl-N-pyridin-3-ylmethyl-benzamide], the IC50 in assay [1] was greater than 50 µM; in assay [2] it was 10.8 µM.

For `CCOc1ccc(C(=O)N(Cc2cccnc2)Cc2ccccc2-c2ccccc2)cc1` [Example 102, N-Biphenyl-2-ylmethyl-4-ethoxy-N-pyridin-3-ylmethyl-benzamide], the IC50 is greater than 50 µM in assay [1] and 15.9 µM in assay [2].

As for `COc1ccc(C(=O)N(Cc2ccccc2-c2ccccc2)c2ccc(OC)cc2)cc1` [Example 103, N-Biphenyl-2-ylmethyl-4-methoxy-N-(4-methoxy-phenyl)-benzamide], the values for the IC50 in assay [1] and in assay [2] were greater than 50 µM and 49 µM, respectively.

Take `CCOc1ccccc1C(=O)N(Cc1ccccc1-c1ccccc1)c1ccc(OC)cc1` [Example 104, N-Biphenyl-2-ylmethyl-2-ethoxy-N-(4-methoxy-phenyl)-benzamide]: the IC50 is greater than 50 µM in assay [1] and 11.9 µM in assay [2].

Take `COc1ccc(N(Cc2ccccc2-c2ccccc2)C(=O)c2ccc3c(c2)OCO3)cc1` [Example 105, Benzo[1,3]dioxole-5-carboxylic acid biphenyl-2-ylmethyl-(4-methoxy-phenyl)-amide]: the IC50 in assay [1] was greater than 50 µM; in assay [2], 13.4 µM.

Consider `COc1ccc(N(Cc2ccccc2-c2ccccc2)C(=O)c2ccc(OC)cc2OC)cc1` [Example 106, N-Biphenyl-2-ylmethyl-2,4-dimethoxy-N-(4-methoxy-phenyl)-benzamide], for which the IC50 in assay [1] is greater than 50 µM; in assay [2] it was 9.3 µM.

`COc1ccc(N(Cc2ccccc2-c2ccccc2)C(=O)c2ccccc2OCc2ccccc2)cc1` [Example 107, 2-Benzyloxy-N-biphenyl-2-ylmethyl-N-(4-methoxy-phenyl)-benzamide]: the results for the IC50 in assay [1] and in assay [2] were greater than 50 µM and 15.4 µM, respectively.

`COc1ccc(N(Cc2ccccc2-c2ccccc2)C(=O)c2ccccc2Br)cc1` [Example 108, N-Biphenyl-2-ylmethyl-2-bromo-N-(4-methoxy-phenyl)-benzamide]: the IC50 in assay [1] was greater than 50 µM; in assay [2], 37.7 µM.

Consider `COc1ccc(N(Cc2ccccc2-c2ccccc2)C(=O)c2cccc3c2OCO3)cn1` [Example 109, Benzo[1,3]dioxole-4-carboxylic acid biphenyl-2-ylmethyl-(6-methoxy-pyridin-3-yl)-amide], for which the IC50 in assay [1] was greater than 50 µM; in assay [2] it was 11.8 µM.

Turning to `CCOc1ccccc1C(=O)N(Cc1ccccc1-c1ccccc1)c1ccccn1` [Example 110, N-Biphenyl-2-ylmethyl-2-ethoxy-N-pyridin-2-yl-benzamide], the IC50 in assay [1] was greater than 50 µM; in assay [2] it was 14 µM.

`O=C(c1ccccc1Br)N(Cc1ccccc1-c1ccccc1)c1ccccn1` [Example 111, N-Biphenyl-2-ylmethyl-2-bromo-N-pyridin-2-yl-benzamide]: the IC50 is greater than 50 µM in assay [1] and 18.7 µM in assay [2].

As to `O=C(c1ccccc1[N+](=O)[O-])N(Cc1ccccc1-c1ccccc1)c1ccccn1` [Example 112, N-Biphenyl-2-ylmethyl-2-nitro-N-pyridin-2-yl-benzamide], the results for the IC50 in assay [1] and in assay [2] were greater than 50 µM and 23.7 µM, respectively.

For `O=C(c1ccccc1OCc1ccccc1)N(Cc1ccccc1-c1ccccc1)c1ccccn1` [Example 113, 2-Benzyloxy-N-biphenyl-2-ylmethyl-N-pyridin-2-yl-benzamide], the IC50 in assay [1] is greater than 50 µM; in assay [2], 25.1 µM.

For `O=C(c1ccccc1Br)N(Cc1ccccc1-c1ccccc1)c1cccnc1` [Example 114, N-Biphenyl-2-ylmethyl-2-bromo-N-pyridin-3-yl-benzamide], the IC50 was greater than 50 µM in assay [1] and 26.7 µM in assay [2].

As to `O=C(c1sc2ccccc2c1Cl)N(Cc1ccccc1-c1ccccc1)c1cccnc1` [Example 115, 3-Chloro-benzo[b]thiophene-2-carboxylic acid biphenyl-2-ylmethyl-pyridin-3-yl-amide], the values for the IC50 in assay [1] and in assay [2] were greater than 50 µM and 23.5 µM, respectively.

Turning to `O=C(c1cc2ccccc2s1)N(Cc1ccccc1-c1ccccc1)c1cccnc1` [Example 116, Benzo[b]thiophene-2-carboxylic acid biphenyl-2-ylmethyl-pyridin-3-yl-amide], the half-maximal inhibitory concentration (IC50) in assay [1] is greater than 50 µM; in assay [2], 9.3 µM.

For the compound `O=C(c1ccccc1[N+](=O)[O-])N(Cc1ccccc1-c1ccccc1)c1cccnc1` [Example 117, N-Biphenyl-2-ylmethyl-2-nitro-N-pyridin-3-yl-benzamide], the IC50 was greater than 50 µM in assay [1] and 18 µM in assay [2].

Consider `CCOc1ccccc1C(=O)N(Cc1ccccc1-c1ccccc1)c1ccncc1` [Example 118, N-Biphenyl-2-ylmethyl-2-ethoxy-N-pyridin-4-yl-benzamide], for which the IC50 in assay [1] was greater than 50 µM; in assay [2], 5.8 µM.

Consider `COc1ccccc1C(=O)N(Cc1ccccc1-c1ccccc1)c1ccncc1` [Example 119, N-Biphenyl-2-ylmethyl-2-methoxy-N-pyridin-4-yl-benzamide], for which the IC50 in assay [1] is greater than 50 µM; in assay [2] it was 4.8 µM.

Turning to `O=C(c1cccc2c1OCO2)N(Cc1ccccc1-c1ccccc1)c1ccncc1` [Example 120, Benzo[1,3]dioxole-4-carboxylic acid biphenyl-2-ylmethyl-pyridin-4-yl-amide], the results for the IC50 in assay [1] and in assay [2] were greater than 50 µM and 18.1 µM, respectively.

Consider `O=C(c1ccccc1Br)N(Cc1ccccc1-c1ccccc1)c1ccncc1` [Example 121, N-Biphenyl-2-ylmethyl-2-bromo-N-pyridin-4-yl-benzamide], for which the IC50 was greater than 50 µM in assay [1] and 3.8 µM in assay [2].

Consider `O=C(c1ccccc1[N+](=O)[O-])N(Cc1ccccc1-c1ccccc1)c1ccncc1` [Example 122, N-Biphenyl-2-ylmethyl-2-nitro-N-pyridin-4-yl-benzamide], for which the results for the IC50 in assay [1] and in assay [2] were greater than 50 µM and 22.4 µM, respectively.

For the compound `O=C(c1ccccc1OCc1ccccc1)N(Cc1ccccc1-c1ccccc1)c1ccncc1` [Example 123, 2-Benzyloxy-N-biphenyl-2-ylmethyl-N-pyridin-4-yl-benzamide], the IC50 in assay [1] was greater than 50 µM; in assay [2] it was 2.3 µM.

In the case of `CCOc1ccc(C(=O)N(Cc2ccccc2-c2ccccc2)c2ccncc2)cc1` [Example 124, N-Biphenyl-2-ylmethyl-4-ethoxy-N-pyridin-4-yl-benzamide], the IC50 in assay [1] is greater than 50 µM; in assay [2], 3.3 µM.

Take `O=C(c1cc2ccccc2s1)N(Cc1cccnc1)Cc1ccccc1-c1ccccc1` [Example 125, Benzo[b]thiophene-2-carboxylic acid biphenyl-2-ylmethyl-pyridin-3-ylmethyl-amide]: the IC50 in assay [1] is greater than 50 µM; in assay [2], 23.9 µM.

On to `COc1ccc(N(Cc2ccccc2-c2ccccc2)C(=O)c2ccccc2SC)cc1` [Example 126, N-Biphenyl-2-ylmethyl-N-(4-methoxy-phenyl)-2-methylsulfanyl-benzamide], for which the IC50 is greater than 50 µM in assay [1] and 16 µM in assay [2].

With `COc1ccc(N(Cc2ccccc2-c2ccccc2)C(=O)c2ccccc2SC(C)C)cc1` [Example 127, N-Biphenyl-2-ylmethyl-2-isopropylsulfanyl-N-(4-methoxy-phenyl)-benzamide], the IC50 in assay [1] is greater than 50 µM; in assay [2], 49.4 µM.

On to `CCCSc1ccccc1C(=O)N(Cc1ccccc1-c1ccccc1)c1cccc(OC)c1` [Example 128, N-Biphenyl-2-ylmethyl-N-(3-methoxy-phenyl)-2-propylsulfanyl-benzamide], for which the half-inhibitory concentration (IC50) is greater than 50 µM in assay [1] and 46.8 µM in assay [2].

For `COc1cccc(N(Cc2ccccc2-c2ccccc2)C(=O)c2ccccc2SC)c1` [Example 129, N-Biphenyl-2-ylmethyl-N-(3-methoxy-phenyl)-2-methylsulfanyl-benzamide], the IC50 in assay [1] is greater than 50 µM; in assay [2], 6.5 µM.

As for `COc1cccc(N(Cc2ccccc2-c2ccccc2)C(=O)c2ccccc2SC(C)C)c1` [Example 130, N-Biphenyl-2-ylmethyl-2-isopropylsulfanyl-N-(3-methoxy-phenyl)-benzamide], the IC50 in assay [1] is greater than 50 µM; in assay [2] it was 31.4 µM.

Values taken from patent publication US6780883B2, “Amide inhibitors of microsomal triglyceride transfer protein” (Warner-Lambert Company, priority 1998, dated 2004).
